Target: PI3Kβ (Homo sapiens (Human), UniProt P42338)
Assay: PI3K isoform TR-FRET enzymatic assay (PI3Kβ)
Format: biochemical
Settings: 2× Km ATP, 30 minutes at 25° C.
How it was run: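 IC50 came from four-parameter dose-response fits, normalized between DMSO and 1 μM wortmannin controls. The read-out was TR-FRET (615/665 nm) of PIP3 displacing fluorescent PIP3 from Europium GRP-1 after 10 mM EDTA termination. Compounds were incubated with purified heterodimeric PI3Kβ for 30 min at 25° C.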

PI3Kβ, sequence (P42338 whole entry, canonical isoform): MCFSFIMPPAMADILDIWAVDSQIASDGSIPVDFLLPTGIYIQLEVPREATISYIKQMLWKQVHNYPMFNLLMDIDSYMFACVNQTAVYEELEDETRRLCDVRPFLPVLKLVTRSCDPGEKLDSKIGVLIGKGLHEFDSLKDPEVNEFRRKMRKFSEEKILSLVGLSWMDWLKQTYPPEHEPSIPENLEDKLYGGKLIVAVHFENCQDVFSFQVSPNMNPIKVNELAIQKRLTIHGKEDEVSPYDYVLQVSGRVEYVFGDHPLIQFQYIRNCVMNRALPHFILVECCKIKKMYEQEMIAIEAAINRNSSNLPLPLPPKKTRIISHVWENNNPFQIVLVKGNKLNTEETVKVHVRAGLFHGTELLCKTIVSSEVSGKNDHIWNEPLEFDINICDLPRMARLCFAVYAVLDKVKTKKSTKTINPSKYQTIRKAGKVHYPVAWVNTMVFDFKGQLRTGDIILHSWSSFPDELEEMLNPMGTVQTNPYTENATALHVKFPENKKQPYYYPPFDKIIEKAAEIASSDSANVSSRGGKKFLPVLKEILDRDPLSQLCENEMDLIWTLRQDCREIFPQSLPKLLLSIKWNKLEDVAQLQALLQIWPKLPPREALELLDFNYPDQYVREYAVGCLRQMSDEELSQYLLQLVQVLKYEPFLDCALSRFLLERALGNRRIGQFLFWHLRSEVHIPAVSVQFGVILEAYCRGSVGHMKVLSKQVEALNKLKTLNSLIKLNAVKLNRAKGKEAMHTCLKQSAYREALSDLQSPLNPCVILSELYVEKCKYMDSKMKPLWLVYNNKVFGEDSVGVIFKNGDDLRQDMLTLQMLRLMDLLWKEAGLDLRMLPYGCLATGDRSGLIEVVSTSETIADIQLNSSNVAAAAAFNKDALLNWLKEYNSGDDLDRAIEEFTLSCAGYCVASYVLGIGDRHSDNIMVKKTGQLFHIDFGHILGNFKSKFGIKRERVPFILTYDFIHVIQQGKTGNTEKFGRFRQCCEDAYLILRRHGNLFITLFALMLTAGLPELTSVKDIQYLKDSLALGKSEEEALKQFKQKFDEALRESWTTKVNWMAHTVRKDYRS
PI3Kβ, sequence (P27986 whole entry partner, canonical isoform): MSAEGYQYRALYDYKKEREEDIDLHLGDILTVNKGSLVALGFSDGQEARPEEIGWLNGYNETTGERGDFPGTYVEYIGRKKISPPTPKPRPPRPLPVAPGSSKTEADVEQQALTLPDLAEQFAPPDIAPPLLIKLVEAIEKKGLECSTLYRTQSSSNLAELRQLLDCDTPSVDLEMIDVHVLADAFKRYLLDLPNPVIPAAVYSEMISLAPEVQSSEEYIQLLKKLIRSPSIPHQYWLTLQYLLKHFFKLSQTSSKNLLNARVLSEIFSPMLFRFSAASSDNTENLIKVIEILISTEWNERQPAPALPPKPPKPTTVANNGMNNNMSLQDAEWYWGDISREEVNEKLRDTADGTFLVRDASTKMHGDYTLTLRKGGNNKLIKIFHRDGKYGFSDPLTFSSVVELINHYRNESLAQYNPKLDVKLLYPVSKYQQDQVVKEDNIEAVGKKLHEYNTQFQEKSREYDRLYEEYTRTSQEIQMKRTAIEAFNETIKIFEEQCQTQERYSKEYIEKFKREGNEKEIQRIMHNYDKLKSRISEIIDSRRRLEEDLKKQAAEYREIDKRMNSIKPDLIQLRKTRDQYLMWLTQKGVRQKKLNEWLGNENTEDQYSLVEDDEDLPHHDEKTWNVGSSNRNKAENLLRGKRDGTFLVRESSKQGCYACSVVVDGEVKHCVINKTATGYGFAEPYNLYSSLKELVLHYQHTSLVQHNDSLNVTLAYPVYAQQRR

Row | SMILES | IC50
1 | Cc1nc2c(-c3nnc[nH]3)cc(N3CCOCC3)cc2n1-c1ccnc2cccc(Cl)c12 [Example 84, 4-[3-(5-chloroquinolin-4-yl)-2-methyl-7-(4H-1,2,4-triazol-3-yl)benzimidazol-5-yl]morpholine] | 17 nM
2 | Fc1cccc2c(-n3cnc4c(-c5nnc[nH]5)cc(N5CCOCC5)cc43)ccnc12 [Example 95, 4-[3-(8-fluoroquinolin-4-yl)-7-(4H-1,2,4-triazol-3-yl)benzimidazol-5-yl]morpholine] | 6 nM
3 | CCCc1nc2c(-c3nnc[nH]3)cc(N3CCOCC3)cc2n1-c1ccnc2c(Cl)ccc(F)c12 [Example 48, 4-(1-(8-chloro-5-fluoroquinolin-4-yl)-2-propyl-4-(4H-1,2,4-triazol-3-yl)-1H-benzo[d]imidazol-6-yl)morpholine] | 18 nM
4 | Cc1nnc(-c2cc(N3CCOCC3)cc3c2nc(C(C)C)n3-c2ccnc3c(Cl)cccc23)[nH]1 [Example 14, 4-(1-(8-chloroquinolin-4-yl)-2-isopropyl-4-(5-methyl-4H-1,2,4-triazol-3-yl)-1H-benzo[d]imidazol-6-yl)morpholine] | 49 nM
5 | CCc1nc2c(-c3nnc(C)[nH]3)cc(N3CCOCC3)cc2n1-c1c(Cl)cnc2c(Cl)cccc12 [Example 26, 4-[3-(3,8-dichloroquinolin-4-yl)-2-ethyl-7-(5-methyl-4H-1,2,4-triazol-3-yl)benzimidazol-5-yl]morpholine] | 22 nM
6 | Cc1nnc(-c2cc(N3CCOCC3)cc3c2nc(C)n3-c2c(Cl)cnc3c(Cl)cccc23)[nH]1 (atropisomer, axis not shown) [Compound 366, 4-(1-(3,8-dichloroquinolin-4-yl)-2-methyl-4-(5-methyl-4H-1,2,4-triazol-3-yl)-1H-benzo[d]imidazol-6-yl)morpholine] | 17 nM
7 | CCCc1nc2c(-c3nnc[nH]3)cc(N3CCOCC3)cc2n1-c1ccnc2c(F)ccc(F)c12 [Example 45, 4-(1-(5,8-difluoroquinolin-4-yl)-2-propyl-4-(4H-1,2,4-triazol-3-yl)-1H-benzo[d]imidazol-6-yl)morpholine] | 19 nM
8 | CC(C)c1nc2c(-c3nnc[nH]3)cc(N3CCOCC3)cc2n1-c1ccnc2c(Cl)cccc12 [Example 36, 4-(1-(8-chloroquinolin-4-yl)-2-isopropyl-4-(4H-1,2,4-triazol-3-yl)-1H-benzo[d]imidazol-6-yl)morpholine] | 11 nM
9 | Cc1cccc2nccc(-n3c(C)nc4c(-c5nnc[nH]5)cc(N5CCOCC5)cc43)c12 [Example 83, 4-[2-methyl-3-(5-methylquinolin-4-yl)-7-(4H-1,2,4-triazol-3-yl)benzimidazol-5-yl]morpholine] | 19 nM
10 | Fc1ccc(F)c2c(-n3c(C4CC4)nc4c(-c5cnc(Cl)[nH]5)cc(N5CCOCC5)cc43)ccnc12 (atropisomer, axis not shown) [Compound 343, 4-[7-(2-chloro-1H-imidazol-5-yl)-2-cyclopropyl-3-(5,8-difluoroquinolin-4-yl)benzimidazol-5-yl]morpholine] | 5 nM

Now from value to compound:

Row | IC50 | SMILES
11 | 15 nM | CCc1nc2c(-c3cnc[nH]3)cc(N3CCOCC3)cc2n1-c1ccnc2c(F)cccc12 [Example 209, 4-[2-ethyl-3-(8-fluoroquinolin-4-yl)-7-(1H-imidazol-5-yl)benzimidazol-5-yl]morpholine]
12 | 14 nM | CCc1nc2c(-c3nnc[nH]3)cc(N3CCOCC3)cc2n1-c1ccnc2c(F)cccc12 [Example 139, 4-[2-ethyl-3-(8-fluoroquinolin-4-yl)-7-(4H-1,2,4-triazol-3-yl)benzimidazol-5-yl]morpholine]
13 | 8 nM | c1ccc2c(-n3cnc4c(-c5nnc[nH]5)cc(N5CCOCC5)cc43)cc(N3CCNCC3)nc2c1 [Example 379, 4-(1-(2-(piperazin-1-yl)quinolin-4-yl)-4-(4H-1,2,4-triazol-3-yl)-1H-benzo[d]imidazol-6-yl)morpholine]
14 | 15 nM | CCCc1nc2c(-c3cnc(Cl)[nH]3)cc(N3CCOCC3)cc2n1-c1ccnc2c(Cl)cccc12 [Example 281, 4-[7-(2-chloro-1H-imidazol-5-yl)-3-(8-chloroquinolin-4-yl)-2-propylbenzimidazol-5-yl]morpholine]
15 | 11 nM | Cc1nc2c(-c3cnc[nH]3)cc(N3CCOCC3)cc2n1-c1ccnc2c(Cl)cccc12 [Example 266, 4-[3-(8-chloroquinolin-4-yl)-7-(1H-imidazol-5-yl)-2-methylbenzimidazol-5-yl]morpholine]
16 | 87 nM | Cc1nnc(-c2cc(N3CCOCC3)cc3c2nc(C)n3-c2ccnc3c(F)cccc23)[nH]1 [Example 130, 4-[3-(8-fluoroquinolin-4-yl)-2-methyl-7-(5-methyl-4H-1,2,4-triazol-3-yl)benzimidazol-5-yl]morpholine]
17 | 21 nM | Cc1nc2c(-c3nnc[nH]3)cc(N3CCOCC3)cc2n1-c1ccnc2c(F)ccc(Cl)c12 [Example 126, 4-[3-(5-chloro-8-fluoroquinolin-4-yl)-2-methyl-7-(4H-1,2,4-triazol-3-yl)benzimidazol-5-yl]morpholine]
18 | 65 nM | Cc1nc2c(-c3ccsc3)cc(N3CCOCC3)cc2n1-c1ccnc2c(Cl)cccc12 [Example 272, 4-[3-(8-chloroquinolin-4-yl)-2-methyl-7-thiophen-3-ylbenzimidazol-5-yl]morpholine]
19 | 27 nM | Cc1nc2c(-c3ccco3)cc(N3CCOCC3)cc2n1-c1ccnc2c(Cl)cccc12 [Example 274, 4-[3-(8-chloroquinolin-4-yl)-7-(furan-2-yl)-2-methylbenzimidazol-5-yl]morpholine]
20 | 21 nM | CCc1nc2c(-c3cnc(C)[nH]3)cc(N3CCOCC3)cc2n1-c1ccnc2c(Cl)cccc12 [Example 245, 4-[3-(8-chloroquinolin-4-yl)-2-ethyl-7-(2-methyl-1H-imidazol-5-yl)benzimidazol-5-yl]morpholine]
21 | 27 nM | Clc1ncc(-c2cc(N3CCOCC3)cc3c2nc(C2COC2)n3-c2ccnc3c(Cl)cccc23)[nH]1 [Example 291, 4-[7-(2-chloro-1H-imidazol-5-yl)-3-(8-chloroquinolin-4-yl)-2-(oxetan-3-yl)benzimidazol-5-yl]morpholine]
22 | 210 nM | Fc1ccc(F)c2c(-n3c(C4CC4)nc4c(-c5nnc(Cl)[nH]5)cc(N5CCOCC5)cc43)ccnc12 [Example 181, 4-[7-(5-chloro-4H-1,2,4-triazol-3-yl)-2-cyclopropyl-3-(5,8-difluoroquinolin-4-yl)benzimidazol-5-yl]morpholine]
23 | 12 nM | CCCc1nc2c(-c3nccs3)cc(N3CCOCC3)cc2n1-c1ccnc2c(F)ccc(F)c12 [Example 239, 4-[3-(5,8-difluoroquinolin-4-yl)-2-propyl-7-(1,3-thiazol-2-yl)benzimidazol-5-yl]morpholine]
24 | 120 nM | Cc1nc2c(-c3cn(C)cn3)cc(N3CCOCC3)cc2n1-c1ccnc2c(Cl)cccc12 [Example 203, 4-[3-(8-chloroquinolin-4-yl)-2-methyl-7-(1-methylimidazol-4-yl)benzimidazol-5-yl]morpholine]
25 | 100 nM | Cc1csc(-c2cc(N3CCOCC3)cc3c2nc(C2CC2)n3-c2ccnc3c(Cl)cccc23)n1 [Example 234, 4-[3-(8-chloroquinolin-4-yl)-2-cyclopropyl-7-(4-methyl-1,3-thiazol-2-yl)benzimidazol-5-yl]morpholine]
26 | 23 nM | Cc1nc2c(-c3nnn[nH]3)cc(N3CCOCC3)cc2n1-c1ccnc2c(Cl)cccc12 [Example 161]
